# Patent US20260035338A1, “AMINO LIPID COMPOUND AND LIPID NANOPARTICLE FOR DELIVERING BIOACTIVE INGREDIENT” (SHENZHEN SHENXIN BIOTECHNOLOGY CO., LTD., priority 2022, published 2026)
# Tested on: BALB/c mice
# Assay: In vivo delivery of Fluc mRNA-encapsulating LNP formulations, luciferase signal by In Vivo Imaging System (IVIS)
# Settings: tail vein injection (IV) 70 μL, female BALB/c mice, 6 hours after injection; for Average number of photons (Total in-vivo flux): LNP formulation encapsulating Fluc mRNA (Lipid:DSPC:CHO-HP:M-DMG-2000 48:10:40.5:1.5); for Average number of photons (Liver) / Average number of photons (Spleen): LNP formulation encapsulating Fluc mRNA
# Protocol: Animal preparation: Female BALB/c mice of 6-8 weeks old were selected and raised in an SPF grade breeding room. Animal testing was conducted in strict accordance with the guidelines of national health institutions and animal ethics requirements.
# In vivo Delivery: prior to injection of the test LNP formulation, the LNP formulation was gently and repeatedly inverted to thoroughly mix the sample of the formulation. A corresponding amount of the LNP formulation was aspirated with a 1 ml insulin syringe, and the LNP formulation was injected by tail vein injection (IV), with 3 mice in duplicate per formulation. Each mouse was injected with 70 μL of the corresponding LNP formulation encapsulating the luciferase mRNA (Fluc mRNA) prepared in Experimental Example 1.
# 6 hours after injection of LNP formulations, mice were injected with 200 μL D-Luciferin luciferase developing substrate (Catalog No. 122799; Manufacturer: Perkin Elmer). After the substrate was injected, the mice were anesthetized with isoflurane inhalation, and the injection time of luciferase developing substrate was recorded.
# The encapsulation efficiency of the lipid nanoparticle encapsulating luciferase mRNA (Fluc mRNA) with a representative amino lipid compound and the fluorescence expression intensity induced by the same are shown in Table 4, with the LNP formulation containing SM-102, 1001 or ALC-0315 as a control LNP formulation. The preparation method of the control LNP formulation was basically the same as that of the LNP formulations in Experimental Example 1, with the difference lying in that the amino lipid compounds of the present disclosure were replaced with SM-102, 1001 or ALC-0315 in the preparation of the control LNP formulation.
Structure (SMILES),Average number of photons (Total in-vivo flux),Average number of photons (Liver),Average number of photons (Spleen)
CCCCCCOC(CCCOC(=O)CCCCCCCCC(CCCCCCCCC(=O)OCCCC(OCCCCCC)OCCCCCC)OC(=O)OCCCN1CCCC1)OCCCCCC [compound 396],1.85E+08,3.24E+07,9.78E+05
CCCCCOC(CCCCCOC(=O)CCCCCCCCC(CCCCCCCCC(=O)OCCCCCC(OCCCCC)OCCCCC)OC(=O)OCCCN(CC)CC)OCCCCC [compound 390],5.23E+07,7.04E+06,3.84E+05
CCCCCCCCCOC(CCCOC(=O)CCCCCCCCC(CCCCCCCCC(=O)OCCCC(OCCCCCCC)OCCCCCCCC)OC(=O)OCCCN(CC)CC)OCCCCCCCCC (stereo not drawn) [compound 869],1.22E+07,2.15E+06,5.40E+04
CCCCCCCOC(CCCOC(=O)CCCCCCCCC(CCCCCCCCC(=O)OCCCC(OCCCCCCC)OCCCCCCC)OC(=O)N(CCCC(=O)OCCCCC)CCCN(C)C)OCCCCCCC [compound 381],2.46E+08,4.40E+07,1.96E+07
CCCCCCCCCOC(CCCOC(=O)CCCCCCCCC(CCCCCCCCC(=O)OCCCC(OCCCCC)OCCCCC)OC(=O)OCCCN(CC)CC)OCCCCCCCCC (stereo not drawn) [compound 864],3.66E+07,6.58E+06,2.33E+05
"CCCCCCCCCCCOC(=O)CCCCCN(CCO)CCCCCCCC(=O)OC(CCCCCCCC)CCCCCCCC [SM-102, reference compound]",3.00E+08,6.19E+07,6.42E+06
CCCCCCOC(CCCOC(=O)OCCCCCCCCCC(CCCCCCCCCOC(=O)OCC(OCCCCCC)OCCCCCC)OC(=O)OCCCN(CC)CC)OCCCCCC (stereo not drawn) [compound 457],1.43E+07,1.55E+06,2.70E+06
CCCCCCCOC(CCCOC(=O)CCCCCCCCC(CCCCCCCCC(=O)OCCCC(OCCCCC)OCCCCC)OC(=O)OCCCN(CC)CC)OCCCCCCC (stereo not drawn) [compound 862],8.57E+07,1.53E+07,6.67E+05
CCCCCCCOC(CCCOC(=O)CCCCCCCCC(CCCCCCCCC(=O)OCCCC(OCCCCCCC)OCCCCCCC)OC(=O)OCCCN(C)C)OCCCCCCC [compound 490],2.65E+07,3.68E+06,5.06E+05
"CCCCCCCCC(CCCCCC)C(=O)OCCCCCCN(CCCCO)CCCCCCOC(=O)C(CCCCCC)CCCCCCCC (stereo not drawn) [ALC-0315, reference compound]",6.39E+08,1.23E+08,3.45E+06
CCCCCCOCCCCOC(=O)CCCCCCCCC(CCCCCCCCC(=O)OCCCC(OCCCCCC)OCCCCCC)OC(=O)OCCCN(CC)CC (stereo not drawn) [compound 440],2.30E+08,3.22E+07,2.14E+06
CCCCCCCOC(CCCOC(=O)CCCCCCCCC(CCCCCCCCC(=O)OCCCC(OCCCCCCC)OCCCCCCC)OC(=O)OCCCN(CC)CC)OCCCCCCC [compound 383],6.10E+07,8.57E+06,1.53E+06
CCCCCCOC(CCCOC(=O)CCCCCCC(CCCCCCC(=O)OCCCC(OCCCCCC)OCCCCCC)OC(=O)OCCCN(CC)CC)OCCCCCC [compound 2044],4.94E+07,6.90E+06,1.18E+06
CCC/C=C\COC(=O)CCCOC(=O)CCCCCCCCC(CCCCCCCCC(=O)OCCCC(OC/C=C\CCC)OC/C=C\CCC)OC(=O)OCCCN(CC)CC (stereo not drawn) [compound 438],5.78E+07,8.47E+06,1.07E+06
"CCCCC/C=C\C/C=C\CCCCCCCC(=O)OCC(COC(=O)CCC(OCCCCCCCC)OCCCCCCCC)COC(=O)OCCCN(CC)CC (stereo not drawn) [compound 1001, reference compound]",9.68E+07,9.38E+06,1.65E+07
CCCCCCOC(CCCOC(=O)CCCCCCCCC(CCCCCCCCC(=O)OCCCC(OCCCCCC)OCCCCCC)N(CCCN(C)C)C(C)=O)OCCCCCC [compound 451],2.86E+07,4.63E+06,1.74E+07
CCCCCCCCCOC(CCCOC(=O)CCCCCCCCC(CCCCCCCCC(=O)OCCCC(OCCCCCCCCC)OCCCCCCCCC)OC(=O)OCCCN(C)C)OCCCCCCCCC [compound 849],2.67E+07,4.12E+06,1.82E+05
CCCCCCOC(CCCCOC(=O)CCCCCCCCC(CCCCCCCCC(=O)OCCCCC(OCCCCCC)OCCCCCC)OC(=O)OCCCN(C)C)OCCCCCC [compound 2036],5.60E+07,1.04E+07,5.75E+05
CCCCCCCCOC(CCCOC(=O)CCCCCCCCC(CCCCCCCCC(=O)OCCCC(OCCCCCCC)OCCCCCCC)OC(=O)OCCCN(CC)CC)OCCCCCCCC (stereo not drawn) [compound 868],3.04E+07,5.35E+06,1.74E+05
CCCCCOC(CCCOC(=O)CCCCCCCCC(CCCCCCCCC(=O)OCCCC(OCCCCC)OCCCCC)OC(=O)OCCCN(CC)CC)OCCCCC [compound 387],6.66E+07,7.15E+06,6.77E+05
CCCCCCCCC(CCCCCCCC)OC(=O)CCCCCCCOC(=O)CCCCCCCCC(CCCCCCCCC(=O)OCCCC(OCCCCCC)OCCCCCC)OC(=O)OCCCN(CC)CC (stereo not drawn) [compound 434],2.50E+07,3.52E+06,1.40E+05
CCCCCCCOC(CCCOC(=O)CCCCCCCCC(CCCCCCCCC(=O)OCCCC(OCCCCCC)OCCCCCC)OC(=O)OCCCN(CC)CC)OCCCCCCC (stereo not drawn) [compound 865],4.34E+07,8.60E+06,3.25E+05
CCCCCCCCOC(CCCOC(=O)CCCCCCCCC(CCCCCCCCCNC(=O)OCC(OCCCCCC)OCCCCCC)OC(=O)OCCCN(CC)CC)OCCCCCCCC (stereo not drawn) [compound 458],1.29E+08,2.69E+07,2.60E+06
CCCCCCOC(CCCOC(=O)CCCCCCCCC(CCCCCCCCC(=O)OCCCC(OCCCCCC)OCCCCCC)NC(=O)OCCCN(CC)CC)OCCCCCC [compound 393],2.80E+08,5.44E+07,1.00E+07
CCCCCCOC(CCC(=O)OCC(COC(=O)CCC(OCCCCCC)OCCCCCC)COC(=O)OCCCN(C)C)OCCCCCC [compound 2021],4.49E+06,1.19E+06,1.04E+06
CCCCCCOC(CCCOC(=O)CCCCCCCCC(CCCCCCCCC(=O)OCCCC(OCCCCCC)OCCCCCC)OC(=O)OCC1CCCN(C)C1)OCCCCCC (stereo not drawn) [compound 416],2.16E+08,5.13E+07,3.99E+06
CCCCC/C=C\C/C=C\CCCCCCCC(=O)OCC(COC(=O)OCCCC(OCCCCCCCC)OCCCCCCCC)COC(=O)OCCCN(CC)CC (stereo not drawn) [compound 1246],4.92E+07,6.85E+06,3.83E+06
CCCCCCCCCOC(CCCOC(=O)CCCCCCCCC(CCCCCCCCC(=O)OCCCC(OCCCCCC)OCCCCCC)OC(=O)OCCCN(CC)CC)OCCCCCCCCC (stereo not drawn) [compound 867],2.15E+07,4.12E+06,1.36E+05
CCCCCCCCC(=O)OCCCCCCCCOC(=O)CCCCCCCCC(CCCCCCCCC(=O)OCCCC(OCCCCCC)OCCCCCC)OC(=O)OCCCN(CC)CC (stereo not drawn) [compound 433],2.56E+07,3.83E+06,2.44E+05
CCCCCCOC(CCCOC(=O)CCCCCCCCC(CCCCCCCCC(=O)OCCCC(OCCCCCC)OCCCCCC)N(CCCN(C)C)C(=O)CCC)OCCCCCC [compound 452],3.27E+08,4.94E+07,2.22E+07
